Test results published in the NIST ThermoML archive (doi:10.1016/j.fluid.2018.02.009).

Details: Liquid, Closed cell (Static) method

O=C=O [carbon dioxide]
Details | vapor or sublimation pressure [kPa]
213.22 K | 410.4
223.15 K | 681.8
243.13 K | 1426.3
263.13 K | 2646.7
273.22 K | 3491.3
283.15 K | 4502.3
299.22 K | 6595
